Measurements from US20100016335A1, “NOVEL AMINOPYRIDINE DERIVATIVES HAVING AURORA A SELECTIVE INHIBITORY ACTION” (priority 2006, published 2010).
Counter-ions that a name gives are not always drawn.

Experiments:
human Aurora A = molecular target: T1, human Aurora A (Homo sapiens, UniProt O14965); assay: Aurora A inhibitory activity (IMAP fluorescence polarization phosphorylation assay); assay type: biochemical; conditions: 20 μM ATP, 30° C., 120 minutes
T1 construct: His (N); made in house; host or cells: Escherichia coli BL21-CodonPlus(DE3)-RIL
T1 sequence (O14965 1-403): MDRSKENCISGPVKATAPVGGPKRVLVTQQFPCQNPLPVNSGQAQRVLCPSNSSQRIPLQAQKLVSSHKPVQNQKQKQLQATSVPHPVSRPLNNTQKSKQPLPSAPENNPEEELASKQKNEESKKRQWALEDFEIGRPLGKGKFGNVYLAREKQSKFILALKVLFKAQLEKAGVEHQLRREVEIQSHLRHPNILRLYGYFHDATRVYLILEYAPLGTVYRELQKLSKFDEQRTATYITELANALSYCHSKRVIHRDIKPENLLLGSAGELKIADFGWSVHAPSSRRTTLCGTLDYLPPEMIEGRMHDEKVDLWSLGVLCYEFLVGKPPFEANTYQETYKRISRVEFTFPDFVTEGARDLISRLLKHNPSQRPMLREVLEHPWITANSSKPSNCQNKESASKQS
Source text: cDNA of N-terminal His-tagged human Aurora A was integrated into an expression vector, which was then highly expressed in Escherichia coli BL21-CodonPlus(DE3)-RIL cells. The Escherichia coli was harvested and lysed, and then the His-tagged human Aurora A protein was applied onto a nickel chelate column and eluted from the column with imidazole. The active fractions were desalted with a desalting column to give a purified enzyme.
For the phosphorylation reaction, the method by Upstate, Inc. [Kinase Profiler™ Assay Protocols] was referred to, and phosphorylation of the substrate was detected using IMAP® technology (Molecular Devices, Co. Ltd.) (Gaudet E W. et. al, J. Biomol. Screen, 8, 164-175 (2003)). Concretely, the phosphorylation reaction and the detection were carried out as follows:
The phosphorylation reaction was conducted using 384 well plate, and the reaction volume was 10 μl/well. The reaction buffer is comprised of 50 mM Tris-chloride buffer (pH 7.4), 15 mM magnesium acetate, and 0.2 mM ethylenediamine-N,N,N′,N′-tetraacetic acid (EDTA). Thereto, the purified Aurora A protein, 100 nM of the peptide substrate, and 20 μM of adenosine 5′-triphosphate (ATP) were added, and then the reaction was carried out at 30° C. for 120 minutes.
Thereafter, in order to terminate and detect the reaction, 30 μl of the IMAP (registered trademark) binding reagent (IMAP Progressive Binding Reagent, R7284) that had been diluted (1:400) in the 1×IMAP binding buffer A (IMAP Progressive Binding Buffer A, 5× stock, R7282) was added to each well. The solution stood still for 60 minutes in the dark, and then fluorescence polarization was measured using a high-end microplate reader (excitation wavelength: 485 nm; emission wavelength: 520 nm).
(§1) The compound to be tested was added to the reaction system such that a dilution series of the compound in dimethylsulfoxide (DMSO) was prepared, and then 0.5 μL of this solution was added for the testing to each well. Each control well was provided by adding 0.5 μL of DMSO to the well in place of the DMSO solution containing the compound to be tested.

[1] = molecular target: T2, GST-tagged human Aurora B(AurB)/His-tagged human INCENP complex proteins (Homo sapiens, UniProt Q96GD4); assay: Aurora B inhibitory activity (Method A, IMAP assay kit); assay type: biochemical; conditions: 40 μM ATP, 25° C., 45 minutes
T2 construct: GST; purchased Carna Biosciences, Inc
Procedure: An assay development kit for IMAP (registered trademark) (Aurora B), purchased from Carna Biosciences, Inc., was used for phosphorylation reaction, and the phosphorylation of a substrate was detected using the IMAP technology. […] Using the same, the phosphorylation reaction was conducted in accordance with a partially revised protocol attached to the kit, and then the phosphorylation of the substrate was detected using the IMAP technology.
For the phosphorylation reaction, 384 well plate was used, and the reaction volume was 10 μl/well. The composition of the reaction buffer (assay buffer) is comprised of 20 mM of HEPES buffer (pH 7.4), 0.01% Tween-20, and 2 mM of dithiothreitol (DTT). Thereto, AurB/INCENP complex protein, 100 nM of the substrate, and 40 μM of ATP, and 1 mM of magnesium salt were added, and then the reaction was conducted at 25° C. for 45 minutes. Thereafter, in order to terminate and detect the reaction, 30 μl of the IMAP (registered trademark) binding reagent (IMAP Progressive Binding Reagent, R7284) that had been diluted (1:400) in the 1× IMAP binding buffer A (IMAP Progressive Binding Buffer A, 5× stock, R7282) was added to each well.
as §1, with “DMSO” for “dimethylsulfoxide (DMSO)”

T2 sequence (Q96GD4 whole entry): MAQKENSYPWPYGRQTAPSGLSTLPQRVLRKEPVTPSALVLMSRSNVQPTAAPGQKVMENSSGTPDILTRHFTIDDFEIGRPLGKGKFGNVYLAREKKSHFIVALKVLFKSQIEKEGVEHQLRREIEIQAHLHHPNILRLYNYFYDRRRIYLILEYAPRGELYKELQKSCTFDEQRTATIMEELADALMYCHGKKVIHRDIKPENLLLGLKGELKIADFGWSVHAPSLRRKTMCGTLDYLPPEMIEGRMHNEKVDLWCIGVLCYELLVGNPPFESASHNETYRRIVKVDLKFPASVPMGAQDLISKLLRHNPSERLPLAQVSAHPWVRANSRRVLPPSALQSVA
T2 sequence (Q9NQS7 803-916 partner limits assumed): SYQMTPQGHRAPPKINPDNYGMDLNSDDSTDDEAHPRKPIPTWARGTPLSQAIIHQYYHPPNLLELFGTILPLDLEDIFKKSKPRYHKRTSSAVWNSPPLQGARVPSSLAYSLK

IC50 (human Aurora A) [nM] | IC50 [1] [nM] | SMILES
4.1 | > 1000 | Fc1c(O[C@H]2CC[C@](Cc3cccc(Nc4cc[nH]n4)n3)(c3nnco3)CC2)cccc1C(F)(F)F [Example 22, 6-((trans-4-(2-fluoro-3-(trifluoromethyl)phenoxy)-1-(1,3,4-oxadiazol-2-yl)cyclohexyl)methyl)-N-1H-pyrazol-3-ylpyridin-2-amine]
2.8 | > 1000 | N=c1[nH]nc([C@]2(Cc3cccc(Nc4cc[nH]n4)n3)CC[C@@H](Oc3cccc(C(F)(F)F)c3F)CC2)o1 [Example 21, 6-((trans-4-(2-fluoro-3-(trifluoromethyl)phenoxy)-1-(5-imino-4,5-dihydro-1,3,4-oxadiazol-2-yl)cyclohexyl)methyl)-N-1H-pyrazol-3-ylpyridin-2-amine trifluoroacetate]
0.17 | 130 | O=C(O)[C@]1(Cc2cccc(Nc3nccs3)n2)CC[C@@H](Oc2cccc(C(F)(F)F)c2)CC1 [Example 7, trans-1-((6-(1,3-thiazol-2-ylamino)pyridin-2-yl)methyl)-4-(3-(trifluoromethyl)phenoxy)cyclohexanecarboxylic acid hydrochloride]
0.23 | 142 | Fc1c(O[C@H]2CC[C@](Cc3cccc(Nc4cc[nH]n4)n3)(c3n[nH]c(=S)o3)CC2)cccc1C(F)(F)F [Example 42, 5-(trans-4-(2-fluoro-3-(trifluoromethyl)phenoxy)-1-((6-(1H-pyrazol-3-ylamino)pyridin-2-yl)methyl)cyclohexyl)-1,3,4-oxadiazole-2(3H)-thione trifluoroacetate]
0.09 | 95 | O=C(O)[C@]1(Cc2cc(Br)cc(Nc3nccs3)n2)CC[C@@H](Oc2cccc(Cl)c2F)CC1 [Example 40, trans-1-((4-bromo-6-(1,3-thiazol-2-ylamino)pyridin-2-yl)methyl)-4-(3-chloro-2-fluorophenoxy)cyclohexanecarboxylic acid hydrochloride]
0.45 | 350 | Fc1c(Cl)cccc1O[C@H]1CC[C@](Cc2cccc(Nc3cc[nH]n3)n2)(c2nn[nH]n2)CC1 [Example 17, 6-((trans-4-(3-chloro-2-fluorophenoxy)-1-(2H-tetrazol-5-yl)cyclohexyl)methyl)-N-1H-pyrazol-3-ylpyridin-2-amine trifluoroacetate]
0.15 | 200 | O=C(O)[C@]1(Cc2cccc(Nc3cc[nH]n3)n2)CC[C@@H](Oc2cccc(Cl)c2F)CC1 [Example 10, trans-4-(3-chloro-2-fluorophenoxy)-1-((6-(1H-pyrazol-3-ylamino)pyridin-2-yl)methyl)cyclohexanecarboxylic acid trifluoroacetate]
3.5 | 710 | Cc1nnc([C@]2(Cc3cccc(Nc4cc[nH]n4)n3)CC[C@@H](Oc3cccc(C(F)(F)F)c3F)CC2)s1 [Example 28, 6-((trans-4-(2-fluoro-3-(trifluoromethyl)phenoxy)-1-(5-methyl-1,3,4-thiadiazol-2-yl)cyclohexyl)methyl)-N-1H-pyrazol-3-ylpyridin-2-amine]
0.82 | 320 | CC(=O)N[C@]1(Cc2cccc(Nc3nccs3)n2)CC[C@@H](Oc2cccc(Cl)c2F)CC1 [Example 19, N-(trans-4-(3-chloro-2-fluorophenoxy)-1-((6-(1,3-thiazol-2-ylamino)pyridin-2-yl)methyl)cyclohexyl)acetamide]
0.87 | 690 | Cc1nnc([C@]2(Cc3cccc(Nc4cc[nH]n4)n3)CC[C@@H](Oc3cccc(Cl)c3F)CC2)o1 [Example 25, 6-((trans-4-(3-chloro-2-fluorophenoxy)-1-(5-methyl-1,3,4-oxadiazol-2-yl)cyclohexyl)methyl)-N-1H-pyrazol-3-ylpyridin-2-amine]
1.3 | > 1000 | CN(C)C(=O)[C@]1(Cc2cccc(Nc3cc[nH]n3)n2)CC[C@@H](Oc2cccc(Cl)c2F)CC1 [Example 13, trans-4-(3-chloro-2-fluorophenoxy)-N,N-dimethyl-1-((6-(1H-pyrazol-3-ylamino)pyridin-2-yl)methyl)cyclohexanecarboxamide]
